In ChEMBL document CHEMBL1153369, “First asymmetric synthesis of CJ-14877 and its enantiomer and their interleukin-1beta inhibitory activities” (2009) one finds inhibition data, which are given here for two compounds.

Holding throughout (assay type): functional
The test system of test [1] is PBMC. Description: Inhibition of LPS-induced IL1-beta production in human PBMC at 0.01 uM after 24 hrs by ELISA.
In test [2] the test system is PBMC. The experiment in a line: Inhibition of LPS-induced IL1-beta production in human PBMC at 0.1 uM after 24 hrs by ELISA. On the technique in general: An ELISA detects its analyte on a solid surface through an enzyme-linked reagent.
Test [3] deals with PBMC. The experiment in a line: Inhibition of LPS-induced IL1-beta production in human PBMC at 1.0 uM after 24 hrs by ELISA.
Test [4] concerns PBMC. The experiment in a line: Inhibition of LPS-induced IL1-beta production in human PBMC at 10 uM after 24 hrs by ELISA.

`COC(=O)c1ccc([C@@H](O)[C@@H](C)O)cn1`: in the test on PBMC [1], the inhibition at 0.01 µM worked out at 9.1%. Besides, in the test with PBMC [2], the inhibition at 0.1 µM is 4.3%. In addition, the inhibition at 1 µM in the test with PBMC [3] came to 10.6%. Further, in the test on PBMC [4], the inhibition at 10 µM was -7.5%.
`COC(=O)c1ccc([C@H](O)[C@H](C)O)cn1`: in the test on PBMC [1], the inhibition at 0.01 µM is -9.5%. In addition, the inhibition at 0.1 µM with PBMC [2] was found to be 13.8%. In the test with PBMC [3], the inhibition at 1 µM is 39.6%. Also, the inhibition at 10 µM in the test on PBMC [4] came out at 49.8%.

As a reminder, the inhibition is the drop in the measured response relative to a control, in per cent.
